Measured values: PubChem BioAssay AID1982 (Sanford-Burnham Center for Chemical Genomics, 2009)
The source made the active and inactive calls. The rule behind the calls is not given here.

What was measured:
Test in all cases: kinase panel binding selectivity, selectivity assay, biochemical, KINOMEscan (AID 1982)
[1] = target: Aurora kinase B (Homo sapiens) (UniProt Q96GD4); conditions: KINOMEscan 353-kinase binding panel, qPCR; AURKB; at 10 µM; stronger effect = lower value
[2] = system: BMPR1A; conditions: KINOMEscan 353-kinase binding panel, qPCR, at 10 µM, stronger effect = lower value
[3] = system: BMPR2; conditions: KINOMEscan 353-kinase binding panel, qPCR, at 10 µM, stronger effect = lower value
[4] = system: CAMK1G; conditions: KINOMEscan 353-kinase binding panel, qPCR, at 10 µM, stronger effect = lower value
[5] = target: Calcium/calmodulin-dependent protein kinase type 1 (Homo sapiens) (UniProt Q14012); conditions: KINOMEscan 353-kinase binding panel, qPCR; CAMK1; at 10 µM; stronger effect = lower value
[6] = target: Calcium/calmodulin-dependent protein kinase type II subunit beta (Homo sapiens) (UniProt Q13554); conditions: KINOMEscan 353-kinase binding panel, qPCR; CAMK2B; at 10 µM; stronger effect = lower value
Calcium/calmodulin-dependent protein kinase type II subunit beta (Homo sapiens), sequence (Q13554 whole entry, looked up): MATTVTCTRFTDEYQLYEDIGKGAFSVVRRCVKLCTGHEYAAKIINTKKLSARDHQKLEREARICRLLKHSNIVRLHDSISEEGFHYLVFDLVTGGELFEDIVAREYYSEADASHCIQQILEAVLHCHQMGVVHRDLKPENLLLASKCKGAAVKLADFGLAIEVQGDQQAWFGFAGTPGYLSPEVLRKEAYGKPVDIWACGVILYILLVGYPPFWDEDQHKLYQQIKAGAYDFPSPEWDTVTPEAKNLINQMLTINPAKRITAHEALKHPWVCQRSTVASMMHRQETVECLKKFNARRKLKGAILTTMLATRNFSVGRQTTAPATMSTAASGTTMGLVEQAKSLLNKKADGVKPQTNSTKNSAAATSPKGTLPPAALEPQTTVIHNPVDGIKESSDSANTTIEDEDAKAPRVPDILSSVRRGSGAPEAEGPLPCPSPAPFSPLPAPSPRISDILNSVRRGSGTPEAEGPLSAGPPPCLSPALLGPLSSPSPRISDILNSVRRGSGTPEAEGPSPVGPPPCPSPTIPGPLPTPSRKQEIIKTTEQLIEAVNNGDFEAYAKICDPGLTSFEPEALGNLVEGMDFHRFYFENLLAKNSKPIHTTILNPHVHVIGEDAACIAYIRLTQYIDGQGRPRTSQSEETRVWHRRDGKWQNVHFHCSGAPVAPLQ

[7] = target: Cyclin-dependent kinase 2 (Homo sapiens) (UniProt P24941); conditions: KINOMEscan 353-kinase binding panel, qPCR; CDK2; at 10 µM; stronger effect = lower value
[8] = target: Cyclin-dependent kinase 9 (Homo sapiens) (UniProt P50750); conditions: KINOMEscan 353-kinase binding panel, qPCR; CDK9; at 10 µM; stronger effect = lower value
[9] = target: Dual specificity mitogen-activated protein kinase kinase 1 (Homo sapiens) (UniProt Q02750); conditions: KINOMEscan 353-kinase binding panel, qPCR; MEK1; at 10 µM; stronger effect = lower value
[10] = system: EPHA4; conditions: KINOMEscan 353-kinase binding panel, qPCR, at 10 µM, stronger effect = lower value
[11] = system: EPHB2; conditions: KINOMEscan 353-kinase binding panel, qPCR, at 10 µM, stronger effect = lower value
[12] = target: Inhibitor of nuclear factor kappa-B kinase subunit beta (Homo sapiens) (UniProt O14920); conditions: KINOMEscan 353-kinase binding panel, qPCR; IKK-beta; at 10 µM; stronger effect = lower value
[13] = target: MAP kinase-activated protein kinase 5 (Homo sapiens) (UniProt Q8IW41); conditions: KINOMEscan 353-kinase binding panel, qPCR; MAPKAPK5; at 10 µM; stronger effect = lower value
MAP kinase-activated protein kinase 5 (Homo sapiens), sequence (Q8IW41 whole entry, looked up): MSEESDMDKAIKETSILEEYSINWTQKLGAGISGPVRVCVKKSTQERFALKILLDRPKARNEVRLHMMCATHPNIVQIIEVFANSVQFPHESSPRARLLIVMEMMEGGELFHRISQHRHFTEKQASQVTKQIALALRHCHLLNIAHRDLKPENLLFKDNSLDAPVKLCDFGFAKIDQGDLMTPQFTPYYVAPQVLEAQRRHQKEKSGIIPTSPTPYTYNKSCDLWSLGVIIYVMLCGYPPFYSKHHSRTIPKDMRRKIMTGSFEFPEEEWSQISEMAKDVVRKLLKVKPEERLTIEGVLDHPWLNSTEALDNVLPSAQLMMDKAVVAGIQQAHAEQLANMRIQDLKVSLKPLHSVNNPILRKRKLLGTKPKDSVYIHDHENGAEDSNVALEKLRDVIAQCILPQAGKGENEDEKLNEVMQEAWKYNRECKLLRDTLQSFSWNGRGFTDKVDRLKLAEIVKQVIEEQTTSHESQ

[14] = system: MAP3K3; conditions: KINOMEscan 353-kinase binding panel, qPCR, at 10 µM, stronger effect = lower value
[15] = system: MAP4K3; conditions: KINOMEscan 353-kinase binding panel, qPCR, at 10 µM, stronger effect = lower value
[16] = system: MRCKB; conditions: KINOMEscan 353-kinase binding panel, qPCR, at 10 µM, stronger effect = lower value
[17] = target: Non-receptor tyrosine-protein kinase TYK2 (Homo sapiens) (UniProt P29597); conditions: KINOMEscan 353-kinase binding panel, qPCR, at 10 µM, stronger effect = lower value
Non-receptor tyrosine-protein kinase TYK2 (Homo sapiens), sequence (P29597 whole entry, looked up): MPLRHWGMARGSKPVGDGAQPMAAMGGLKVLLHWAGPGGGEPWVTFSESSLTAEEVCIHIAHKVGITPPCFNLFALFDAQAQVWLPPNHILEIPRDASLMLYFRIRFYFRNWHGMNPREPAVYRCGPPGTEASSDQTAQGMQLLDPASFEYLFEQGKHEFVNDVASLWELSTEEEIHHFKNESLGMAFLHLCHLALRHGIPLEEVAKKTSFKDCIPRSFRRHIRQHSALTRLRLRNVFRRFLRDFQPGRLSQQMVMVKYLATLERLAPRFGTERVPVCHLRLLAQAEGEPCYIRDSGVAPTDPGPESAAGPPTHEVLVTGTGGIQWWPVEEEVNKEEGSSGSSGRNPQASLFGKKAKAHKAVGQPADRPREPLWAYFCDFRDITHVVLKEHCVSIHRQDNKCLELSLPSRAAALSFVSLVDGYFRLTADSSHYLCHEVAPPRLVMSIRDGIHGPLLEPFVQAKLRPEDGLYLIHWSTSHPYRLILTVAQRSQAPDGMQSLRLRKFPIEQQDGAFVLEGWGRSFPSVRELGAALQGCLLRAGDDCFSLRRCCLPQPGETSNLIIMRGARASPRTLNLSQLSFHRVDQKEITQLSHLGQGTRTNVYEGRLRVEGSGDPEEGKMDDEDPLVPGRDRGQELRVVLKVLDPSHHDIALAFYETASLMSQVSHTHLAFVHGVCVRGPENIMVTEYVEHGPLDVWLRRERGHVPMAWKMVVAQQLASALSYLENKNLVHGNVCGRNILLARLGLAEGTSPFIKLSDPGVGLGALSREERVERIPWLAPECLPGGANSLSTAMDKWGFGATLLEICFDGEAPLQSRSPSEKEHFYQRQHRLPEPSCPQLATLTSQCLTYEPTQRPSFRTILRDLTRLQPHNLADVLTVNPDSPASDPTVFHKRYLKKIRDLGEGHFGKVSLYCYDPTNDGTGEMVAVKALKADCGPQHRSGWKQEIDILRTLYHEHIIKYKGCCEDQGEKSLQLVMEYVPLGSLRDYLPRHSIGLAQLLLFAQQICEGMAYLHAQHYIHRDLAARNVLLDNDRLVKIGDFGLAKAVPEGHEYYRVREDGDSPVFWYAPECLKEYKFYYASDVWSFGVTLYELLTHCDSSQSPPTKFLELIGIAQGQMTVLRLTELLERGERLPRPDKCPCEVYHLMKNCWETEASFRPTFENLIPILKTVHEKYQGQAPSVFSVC

[18] = system: PAK3; conditions: KINOMEscan 353-kinase binding panel, qPCR, at 10 µM, stronger effect = lower value
[19] = system: PCTK2; conditions: KINOMEscan 353-kinase binding panel, qPCR, at 10 µM, stronger effect = lower value
[20] = system: PIP5K1A; conditions: KINOMEscan 353-kinase binding panel, qPCR, at 10 µM, stronger effect = lower value
[21] = target: RAF proto-oncogene serine/threonine-protein kinase (Homo sapiens) (UniProt P04049); conditions: KINOMEscan 353-kinase binding panel, qPCR; RAF1; at 10 µM; stronger effect = lower value
RAF proto-oncogene serine/threonine-protein kinase (Homo sapiens), sequence (P04049 whole entry, looked up): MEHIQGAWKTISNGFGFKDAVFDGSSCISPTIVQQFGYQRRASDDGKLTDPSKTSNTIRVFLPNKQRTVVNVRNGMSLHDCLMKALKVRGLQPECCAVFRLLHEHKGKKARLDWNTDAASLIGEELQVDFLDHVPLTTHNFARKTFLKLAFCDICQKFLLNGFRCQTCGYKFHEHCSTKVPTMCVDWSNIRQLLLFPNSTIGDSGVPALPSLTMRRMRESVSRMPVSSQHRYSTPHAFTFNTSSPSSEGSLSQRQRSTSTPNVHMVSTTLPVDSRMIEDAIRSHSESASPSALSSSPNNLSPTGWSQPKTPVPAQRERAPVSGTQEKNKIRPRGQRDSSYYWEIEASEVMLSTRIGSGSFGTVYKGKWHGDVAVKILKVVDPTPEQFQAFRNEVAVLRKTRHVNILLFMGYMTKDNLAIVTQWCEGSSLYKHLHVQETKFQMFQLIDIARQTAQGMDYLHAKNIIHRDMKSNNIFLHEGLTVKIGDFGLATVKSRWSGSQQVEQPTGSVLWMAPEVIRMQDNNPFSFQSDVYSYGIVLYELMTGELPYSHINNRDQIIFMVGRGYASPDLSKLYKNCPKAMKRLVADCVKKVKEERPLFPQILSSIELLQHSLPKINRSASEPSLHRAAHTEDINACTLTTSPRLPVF

[22] = target: Receptor tyrosine-protein kinase erbB-2 (Homo sapiens) (UniProt P04626); conditions: KINOMEscan 353-kinase binding panel, qPCR; ERBB2; at 10 µM; stronger effect = lower value
[23] = target: Receptor-type tyrosine-protein kinase FLT3 (Homo sapiens) (UniProt P36888); conditions: KINOMEscan 353-kinase binding panel, qPCR, at 10 µM, stronger effect = lower value
Receptor-type tyrosine-protein kinase FLT3 (Homo sapiens), sequence (P36888 whole entry, looked up): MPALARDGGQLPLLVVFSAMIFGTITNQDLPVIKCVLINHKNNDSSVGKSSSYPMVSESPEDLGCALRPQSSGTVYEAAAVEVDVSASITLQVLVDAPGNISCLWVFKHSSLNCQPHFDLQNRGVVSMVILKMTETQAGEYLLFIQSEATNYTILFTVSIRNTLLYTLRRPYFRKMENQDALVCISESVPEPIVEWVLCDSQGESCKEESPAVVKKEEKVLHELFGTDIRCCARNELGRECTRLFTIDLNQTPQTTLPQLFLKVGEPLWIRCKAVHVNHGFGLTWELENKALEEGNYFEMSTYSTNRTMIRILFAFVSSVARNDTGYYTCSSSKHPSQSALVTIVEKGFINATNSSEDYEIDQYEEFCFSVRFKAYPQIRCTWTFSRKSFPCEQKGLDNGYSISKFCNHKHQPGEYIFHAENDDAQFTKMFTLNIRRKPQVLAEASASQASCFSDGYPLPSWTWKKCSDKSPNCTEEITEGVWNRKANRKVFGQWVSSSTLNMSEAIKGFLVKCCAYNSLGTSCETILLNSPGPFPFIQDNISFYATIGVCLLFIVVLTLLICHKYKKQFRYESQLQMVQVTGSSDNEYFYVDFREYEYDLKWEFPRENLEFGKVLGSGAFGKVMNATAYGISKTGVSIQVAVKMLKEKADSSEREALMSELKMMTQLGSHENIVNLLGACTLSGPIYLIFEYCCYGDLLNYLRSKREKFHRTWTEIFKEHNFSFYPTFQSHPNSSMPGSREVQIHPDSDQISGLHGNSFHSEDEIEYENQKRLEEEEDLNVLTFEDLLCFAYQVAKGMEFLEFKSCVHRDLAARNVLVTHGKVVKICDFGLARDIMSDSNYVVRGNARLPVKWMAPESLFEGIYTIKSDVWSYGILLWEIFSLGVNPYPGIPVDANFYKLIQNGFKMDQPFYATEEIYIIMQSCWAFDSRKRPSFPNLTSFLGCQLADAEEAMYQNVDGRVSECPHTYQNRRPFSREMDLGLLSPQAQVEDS

[24] = target: Serine/threonine-protein kinase PAK 1 (Homo sapiens) (UniProt Q13153); conditions: KINOMEscan 353-kinase binding panel, qPCR; PAK1; at 10 µM; stronger effect = lower value
Serine/threonine-protein kinase PAK 1 (Homo sapiens), sequence (Q13153 whole entry, looked up): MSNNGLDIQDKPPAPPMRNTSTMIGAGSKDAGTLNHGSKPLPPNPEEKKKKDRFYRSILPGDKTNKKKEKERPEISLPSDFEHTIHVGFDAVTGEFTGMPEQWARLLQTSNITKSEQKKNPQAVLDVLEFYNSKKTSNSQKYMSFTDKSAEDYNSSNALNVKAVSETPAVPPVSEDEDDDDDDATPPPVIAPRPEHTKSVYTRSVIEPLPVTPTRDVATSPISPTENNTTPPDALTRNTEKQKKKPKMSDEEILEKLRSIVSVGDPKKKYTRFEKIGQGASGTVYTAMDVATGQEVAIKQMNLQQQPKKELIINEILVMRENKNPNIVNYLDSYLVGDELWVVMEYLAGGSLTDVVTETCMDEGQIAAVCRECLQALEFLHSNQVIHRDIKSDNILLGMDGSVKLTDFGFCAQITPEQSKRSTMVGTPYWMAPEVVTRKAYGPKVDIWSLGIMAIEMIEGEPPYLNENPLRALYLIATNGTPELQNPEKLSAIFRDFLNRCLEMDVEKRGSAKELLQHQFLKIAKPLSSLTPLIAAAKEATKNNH

[25] = target: Serine/threonine-protein kinase pim-2 (Homo sapiens) (UniProt Q9P1W9); conditions: KINOMEscan 353-kinase binding panel, qPCR; PIM2; at 10 µM; stronger effect = lower value
[26] = system: TGFBR1; conditions: KINOMEscan 353-kinase binding panel, qPCR, at 10 µM, stronger effect = lower value
[27] = target: Tyrosine-protein kinase BTK (Homo sapiens) (UniProt Q06187); conditions: KINOMEscan 353-kinase binding panel, qPCR, at 10 µM, stronger effect = lower value
[28] = target: Tyrosine-protein kinase Fes/Fps (Homo sapiens) (UniProt P07332); conditions: KINOMEscan 353-kinase binding panel, qPCR, at 10 µM, stronger effect = lower value
[29] = target: Tyrosine-protein kinase Lck (Homo sapiens) (UniProt P06239); conditions: KINOMEscan 353-kinase binding panel, qPCR, at 10 µM, stronger effect = lower value
[30] = target: Tyrosine-protein kinase Lyn (Homo sapiens) (UniProt P07948); conditions: KINOMEscan 353-kinase binding panel, qPCR, at 10 µM, stronger effect = lower value
[31] = system: ULK1; conditions: KINOMEscan 353-kinase binding panel, qPCR, at 10 µM, stronger effect = lower value
[32] = system: YANK3; conditions: KINOMEscan 353-kinase binding panel, qPCR, at 10 µM, stronger effect = lower value

Aurora kinase B (Homo sapiens), sequence (Q96GD4 whole entry, looked up): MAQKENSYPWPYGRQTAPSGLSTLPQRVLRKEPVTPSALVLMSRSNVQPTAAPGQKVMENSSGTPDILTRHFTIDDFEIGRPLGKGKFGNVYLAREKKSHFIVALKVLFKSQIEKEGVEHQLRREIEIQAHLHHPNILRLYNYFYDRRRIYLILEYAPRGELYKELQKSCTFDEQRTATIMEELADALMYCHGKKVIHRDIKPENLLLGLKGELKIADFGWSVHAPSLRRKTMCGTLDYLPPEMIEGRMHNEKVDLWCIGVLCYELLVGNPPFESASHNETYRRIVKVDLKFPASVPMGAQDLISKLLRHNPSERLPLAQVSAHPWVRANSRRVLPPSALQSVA

percent of control binding [1]: 100% (inactive)
percent of control binding [2]: 97% (inactive)
percent of control binding [3]: 64% (inactive)
percent of control binding [4]: 88% (inactive)
percent of control binding [5]: 100% (inactive)
percent of control binding [6]: 100% (inactive)
percent of control binding [7]: 95% (inactive)
percent of control binding [8]: 91% (inactive)
percent of control binding [9]: 75% (inactive)
percent of control binding [10]: 86% (inactive)
percent of control binding [11]: 96% (inactive)
percent of control binding [12]: 78% (inactive)
percent of control binding [13]: 100% (inactive)
percent of control binding [14]: 82% (inactive)
percent of control binding [15]: 100% (inactive)
percent of control binding [16]: 100% (inactive)
percent of control binding ([17]; TYK2 Kin.Dom.1): 84% (inactive)
percent of control binding ([17]; TYK2 Kin.Dom.2): 98% (inactive)
percent of control binding [18]: 79% (inactive)
percent of control binding [19]: 99% (inactive)
percent of control binding [20]: 77% (inactive)
percent of control binding [21]: 43% (inactive)
percent of control binding [22]: 100% (inactive)
percent of control binding [23]: 100% (inactive)
percent of control binding ([23]; FLT3(D835H)): 100% (inactive)
percent of control binding ([23]; FLT3(D835Y)): 99% (inactive)
percent of control binding ([23]; FLT3(ITD)): 100% (inactive)
percent of control binding ([23]; FLT3(K663Q)): 100% (inactive)
percent of control binding ([23]; FLT3(N841I)): 94% (inactive)
percent of control binding [24]: 67% (inactive)
percent of control binding [25]: 94% (inactive)
percent of control binding [26]: 92% (inactive)
percent of control binding [27]: 85% (inactive)
percent of control binding [28]: 99% (inactive)
percent of control binding [29]: 100% (inactive)
percent of control binding [30]: 88% (inactive)
percent of control binding [31]: 100% (inactive)
percent of control binding [32]: 100% (inactive)
SMILES: Cc1cc2nc(NCCCO)n(CC(=O)c3cc(C(C)(C)C)c(O)c(C(C)(C)C)c3)c2cc1C
